These results are taken from ChEMBL document CHEMBL1150484, “Structure-based design of achiral anthranilamides as P2/P2 surrogates for symmetry-based HIV protease inhibitors: design, synthesis, X-ray structure, enzyme inhibition and antiviral activity” (Bioorg Med Chem Lett, 1995).

Data set [1] can be described thus: Partition coefficient (logP). Format: physicochemical. To be noted: octanol/water.
In data set [2] the test system is CCRF-CEM. The experiment in a line: Concentration required to produce 50 percent inhibition of HIV-1 infection in CEM cells. The conditions noted are these: Homo sapiens. Format: functional, cell-based.
A short description of data set [3]: Tested for cytotoxicity in HIV-1 infected human T-lymphocyte cell culture. Format: functional. The conditions noted are these: read-out: TC50 (the source's name).
The target of data set [4] is T1, Human immunodeficiency virus type 1 protease (Human immunodeficiency virus 1, UniProt Q72874). Description: Tested for inhibition of HIV protease using fluorogenic substrate.
In data set [5] the target is T1, Human immunodeficiency virus type 1 protease. The experiment in a line: Tested for inhibition of HIV protease using fluorogenic substrate; insoluble.

The structures appear in SMILES notation. pEC50, pKi: −log10 of the molar value.

With `CC(=O)Nc1ccccc1C(=O)N[C@@H](Cc1ccccc1)[C@H](O)[C@H](O)[C@H](Cc1ccccc1)NC(=O)c1ccccc1NC(C)=O`, in data set [1] (read-out: logP), the logP worked out at 4.32. Besides, the pEC50 in data set [2] was < 4.00.
As for `O=C(Nc1ccccc1C(=O)N[C@@H](Cc1ccccc1)C[C@H](O)[C@H](Cc1ccccc1)NC(=O)c1ccccc1NC(=O)OCc1ccccc1)OCc1ccccc1`, in data set [1] (read-out: logP), the logP worked out at 8.28.
Take `O=C(Nc1ccccc1C(=O)N[C@@H](Cc1ccccc1)[C@H](O)[C@H](O)[C@H](Cc1ccccc1)NC(=O)c1ccccc1NC(=O)OCc1ccccn1)OCc1ccccn1`: the logP in data set [1] (read-out: logP) was found to be 6.49. The CC50 in data set [3] was 35 µM. The same compound showed a pEC50 in data set [2] of 7.89.
As to `O=C(Nc1c(O)cccc1C(=O)N[C@@H](Cc1ccccc1)[C@H](O)[C@H](O)[C@H](Cc1ccccc1)NC(=O)c1cccc(O)c1NC(=O)OCc1ccccc1)OCc1ccccc1`, in data set [1] (read-out: logP), the logP was 7.96.
As for `O=C(Nc1ccccc1C(=O)N[C@@H](Cc1ccccc1)C[C@H](O)[C@H](Cc1ccccc1)NC(=O)c1ccccc1NC(=O)OCc1cccnc1)OCc1cccnc1`, the lipophilicity (logP) in data set [1] (read-out: logP) was 5.86. Besides, the pKi in data set [4] was 9.59. In addition, the pEC50 in data set [2] is 6.85.
With `CCOC(=O)Nc1ccccc1C(=O)N[C@@H](Cc1ccccc1)[C@H](O)[C@H](O)[C@H](Cc1ccccc1)NC(=O)c1ccccc1NC(=O)OCC`, in data set [1] (read-out: logP), the logP was 6.14. Also, the Ki entry in data set [5] is reported as “Insoluble”.
Take `O=C(CO)Nc1ccccc1C(=O)N[C@@H](Cc1ccccc1)[C@H](O)[C@H](O)[C@H](Cc1ccccc1)NC(=O)c1ccccc1NC(=O)CO`: the logP in data set [1] (read-out: logP) is 2.52. The compound also had a pKi in data set [4] of 7.70. Further, in data set [2], the pEC50 was 4.22.
Consider `O=C(COCc1ccccc1)Nc1ccccc1C(=O)N[C@@H](Cc1ccccc1)[C@H](O)[C@H](O)[C@H](Cc1ccccc1)NC(=O)c1ccccc1NC(=O)COCc1ccccc1`, for which, in data set [1] (read-out: logP), the logP worked out at 6.91. The pKi in data set [4] was < 5.00.
On to `O=CNc1ccccc1C(=O)N[C@@H](Cc1ccccc1)[C@H](O)[C@H](O)[C@H](Cc1ccccc1)NC(=O)c1ccccc1NC=O`, for which the logP in data set [1] (read-out: logP) came out at 4.89. This compound had a pKi in data set [4] of 8.92. In data set [2], this compound had a negative-log EC50 (pEC50) of 6.05.
For `O=C(Nc1ccccc1C(=O)N[C@@H](Cc1ccccc1)C[C@H](O)[C@H](Cc1ccccc1)NC(=O)c1ccccc1NC(=O)OCc1ccncc1)OCc1ccncc1` the same measures were 5.39, 9.35 and 5.59.
Take `O=C(Nc1c(Cl)cccc1C(=O)N[C@@H](Cc1ccccc1)[C@H](O)[C@H](O)[C@H](Cc1ccccc1)NC(=O)c1cccc(Cl)c1NC(=O)OCc1ccccc1)OCc1ccccc1`: the logP in data set [1] is on record as 9.34.
On the same count and under the same terms, the same measure for `Cc1cccc(C(=O)N[C@@H](Cc2ccccc2)[C@H](O)[C@H](O)[C@H](Cc2ccccc2)NC(=O)c2cccc(C)c2NC(=O)OCc2ccccc2)c1NC(=O)OCc1ccccc1`: 9.24.
Regarding `O=C(Nc1ncccc1C(=O)N[C@@H](Cc1ccccc1)[C@H](O)[C@H](O)[C@H](Cc1ccccc1)NC(=O)c1cccnc1NC(=O)OCc1ccccc1)OCc1ccccc1`, the logP in data set [1] (read-out: logP) amounted to 7.87.
With `O=C(Nc1ccccc1C(=O)N[C@@H](Cc1ccccc1)[C@H](O)[C@H](O)[C@H](Cc1ccccc1)NC(=O)c1ccccc1NC(=O)OCc1ccccc1)OCc1ccccc1`, the logP in data set [1] (read-out: logP) was found to be 8.16. The pEC50 in data set [2] is < 4.00.
As to `O=C(Nc1ccccc1C(=O)N[C@@H](Cc1ccccc1)C[C@H](O)[C@H](Cc1ccccc1)NC(=O)c1ccccc1NC(=O)OCc1ccccn1)OCc1ccccn1`, the logP in data set [1] (read-out: logP) worked out at 6.61. The CC50 in data set [3] was > 50 µM. The pKi in data set [4] is 10.15. The same compound showed a pEC50 in data set [2] of 7.25.
Turning to `Cc1nccnc1C(=O)Nc1ccccc1C(=O)N[C@@H](Cc1ccccc1)[C@H](O)[C@H](O)[C@H](Cc1ccccc1)NC(=O)c1ccccc1NC(=O)c1nccnc1C`, the logP in data set [1] (read-out: logP) amounted to 5.66. Besides, the pKi in data set [4] is < 5.00.
